“And” between values parts separate entries of the source, which are not always exact repeats. Equal entries are not always repeated. Inconclusive results and toxic doses are left out. No stated cut-off is given here; in the data, active means T/C of 150% or more; inactive means T/C below 125%.
Tested on: L1210 leukemia ip in BDF1 mice, survival T/C
Assay: NCI In Vivo Anticancer Drug Screen. Data for tumor model L1210 Leukemia (intraperitoneal) in B6D2F1 (BDF1) mice
Details: endpoint: mean survival time, higher = longer survival
Method in brief: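 In this screen, tumor-bearing mice given compound are compared to those given vehicle, and their survival values are reported as a treated-to-control quotient.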

[1] = dose: 100.0 mg/kg/injection, schedule: Q01DX001 (ip), vehicle: saline
[2] = dose: 100.0 mg/kg/injection, schedule: Q01DX009 (ip), vehicle: saline
[3] = dose: 100.0 mg/kg/injection, schedule: Q04DX003 (ip), vehicle: saline
[4] = dose: 200.0 mg/kg/injection, schedule: Q01DX001 (ip), vehicle: saline
[5] = dose: 200.0 mg/kg/injection, schedule: Q01DX009 (ip), vehicle: saline
[6] = dose: 200.0 mg/kg/injection, schedule: Q04DX003 (ip), vehicle: saline
[7] = dose: 400.0 mg/kg/injection, schedule: Q01DX001 (ip), vehicle: saline
[8] = dose: 400.0 mg/kg/injection, schedule: Q04DX003 (ip), vehicle: saline
[9] = dose: 100.0 mg/kg/injection, schedule: Q04DX002 (ip), vehicle: Klucel (hydroxypropylcellulose) (HPC)
[10] = dose: 200.0 mg/kg/injection, schedule: Q04DX002 (ip), vehicle: Klucel (hydroxypropylcellulose) (HPC)
[11] = dose: 400.0 mg/kg/injection, schedule: Q04DX002 (ip), vehicle: Klucel (hydroxypropylcellulose) (HPC)
[12] = dose: 100.0 mg/kg/injection, schedule: Q04DX003 (ip), vehicle: saline with Tween-80
[13] = dose: 50.0 mg/kg/injection, schedule: Q01DX001 (ip), vehicle: saline
[14] = dose: 100.0 mg/kg/injection, schedule: Q01DX009 (ip), vehicle: saline with Tween-80
[15] = dose: 200.0 mg/kg/injection, schedule: Q01DX009 (ip), vehicle: saline with Tween-80
[16] = dose: 400.0 mg/kg/injection, schedule: Q01DX009 (ip), vehicle: saline with Tween-80
[17] = dose: 100.0 mg/kg/injection, schedule: Q01DX001 (ip), vehicle: Klucel (hydroxypropylcellulose) (HPC)
[18] = dose: 200.0 mg/kg/injection, schedule: Q01DX001 (ip), vehicle: Klucel (hydroxypropylcellulose) (HPC)
[19] = dose: 400.0 mg/kg/injection, schedule: Q01DX001 (ip), vehicle: Klucel (hydroxypropylcellulose) (HPC)
[20] = dose: 25.0 mg/kg/injection, schedule: Q01DX009 (ip), vehicle: saline
[21] = dose: 50.0 mg/kg/injection, schedule: Q01DX009 (ip), vehicle: saline
[22] = dose: 100.0 mg/kg/injection, schedule: Q01DX009 (ip), vehicle: Klucel (hydroxypropylcellulose) (HPC)
[23] = dose: 100.0 mg/kg/injection, schedule: Q04DX003 (ip), vehicle: Klucel (hydroxypropylcellulose) (HPC)
[24] = dose: 200.0 mg/kg/injection, schedule: Q01DX009 (ip), vehicle: Klucel (hydroxypropylcellulose) (HPC)
[25] = dose: 200.0 mg/kg/injection, schedule: Q04DX003 (ip), vehicle: Klucel (hydroxypropylcellulose) (HPC)
[26] = dose: 400.0 mg/kg/injection, schedule: Q01DX009 (ip), vehicle: Klucel (hydroxypropylcellulose) (HPC)
[27] = dose: 400.0 mg/kg/injection, schedule: Q04DX003 (ip), vehicle: Klucel (hydroxypropylcellulose) (HPC)

Measured: T/C

CCOC(=O)COc1c(C(C)CC)cc([N+](=O)[O-])cc1[N+](=O)[O-] (centres undefined)
inactive: dose: 25.0 mg/kg/injection, schedule: Q01DX009 (ip), vehicle: gum acacia 93 % of control | dose: 25.0 mg/kg/injection, schedule: Q04DX002 (ip), vehicle: gum acacia 104 % of control | dose: 50.0 mg/kg/injection, schedule: Q01DX009 (ip), vehicle: gum acacia 93 % of control | dose: 50.0 mg/kg/injection, schedule: Q04DX002 (ip), vehicle: gum acacia 100 % of control | dose: 100.0 mg/kg/injection, schedule: Q01DX009 (ip), vehicle: gum acacia 90 % of control | dose: 100.0 mg/kg/injection, schedule: Q04DX002 (ip), vehicle: gum acacia 100 % of control and 92 % of control

CCCC1(c2ccccc2)CC(=O)NC1=O (centres undefined)
inactive: [1] 100 % of control | [2] 106 % of control and 107 % of control | dose: 100.0 mg/kg/injection, schedule: Q04DX002 (ip), vehicle: saline 100 % of control and 108 % of control | [3] 103 % of control | [4] 97 % of control | [5] 117 % of control and 89 % of control | dose: 200.0 mg/kg/injection, schedule: Q04DX002 (ip), vehicle: saline 105 % of control and 112 % of control | [6] 97 % of control | [7] 95 % of control | dose: 400.0 mg/kg/injection, schedule: Q01DX009 (ip), vehicle: saline 98 % of control and 86 % of control | dose: 400.0 mg/kg/injection, schedule: Q04DX002 (ip), vehicle: saline 105 % of control and 108 % of control | [8] 97 % of control

CCOC(=O)c1nc(N2CCOCC2)c2ccccc2n1
inactive: [9] 104 % of control | [10] 101 % of control | [11] 95 % of control

CC[N+](C)(CC)/N=C(\C)c1ccccc1
inactive: [12] 105 % of control

CSCC#N
inactive: dose: 100.0 mg/kg/injection, schedule: Q01DX001 (ip), vehicle: saline with Tween-80 93 % of control | dose: 200.0 mg/kg/injection, schedule: Q01DX001 (ip), vehicle: saline with Tween-80 96 % of control | dose: 400.0 mg/kg/injection, schedule: Q01DX001 (ip), vehicle: saline with Tween-80 96 % of control

COc1ccccc1/C=N\NC(=O)CCCC(=O)N/N=C/c1ccccc1OC
inactive: [13] 95 % of control | [4] 95 % of control | [7] 90 % of control

C=CCC(CC)C(=O)O (centres undefined)
inactive: [2] 104 % of control | [3] 100 % of control | [5] 96 % of control | [6] 97 % of control | [8] 97 % of control

Cn1nnnc1CCN(N)CCN(N)CCc1nnnn1C
inactive: [1] 103 % of control | [4] 92 % of control | [7] 95 % of control

Cc1ccccc1N1OS(=O)(=O)CC1(C#N)c1ccccc1 (centres undefined)
inactive: [14] 98 % of control | [15] 102 % of control | [16] 96 % of control

Nc1cc(Nc2ccc(Cl)[nH]c2=S)nc(N)n1
inactive: [17] 90 % of control | [18] 93 % of control | [19] 92 % of control

CC1=NCCN1CCN=C(N)CCl
inactive: dose: 12.5 mg/kg/injection, schedule: Q04DX002 (ip), vehicle: saline 107 % of control | [20] 111 % of control | dose: 25.0 mg/kg/injection, schedule: Q04DX002 (ip), vehicle: saline 91 % of control | [21] 101 % of control | dose: 50.0 mg/kg/injection, schedule: Q04DX002 (ip), vehicle: saline 91 % of control

CC(=O)Nc1ccc(CCCCc2cccc(C#N)c2)cc1
inactive: [21] 95 % of control | [2] 100 % of control | [5] 97 % of control

CC(=O)OC(C)(C)/N=N/C(C)(C)OC(C)=O
inactive: [17] 94 % of control | [22] 101 % of control | [23] 108 % of control | [18] 108 % of control | [24] 101 % of control | [25] 101 % of control | [19] 103 % of control | [26] 101 % of control | [27] 103 % of control

Nc1nc(N)nc(-c2ccccn2)n1
inactive: dose: 12.5 mg/kg/injection, schedule: Q01DX009 (ip), vehicle: saline with Tween-80 105 % of control | dose: 25.0 mg/kg/injection, schedule: Q01DX009 (ip), vehicle: saline with Tween-80 92 % of control | dose: 50.0 mg/kg/injection, schedule: Q01DX009 (ip), vehicle: saline with Tween-80 105 % of control

CCc1c(C)nnn1-c1ccccc1
inactive: dose: 75.0 mg/kg/injection, schedule: Q01DX001 (ip), vehicle: saline 94 % of control | dose: 150.0 mg/kg/injection, schedule: Q01DX001 (ip), vehicle: saline 91 % of control

OC(c1ccccc1)(c1ccccc1)c1cccs1
inactive: [12] 94 % of control | dose: 200.0 mg/kg/injection, schedule: Q04DX003 (ip), vehicle: saline with Tween-80 94 % of control | dose: 400.0 mg/kg/injection, schedule: Q04DX003 (ip), vehicle: saline with Tween-80 91 % of control

CCCCCCCCCCCCCCCCCCCCCCCCC
inactive: [23] 91 % of control | [25] 89 % of control | [27] 87 % of control

CC(=O)Nc1c(CCCCc2ccccc2)[nH]c(=O)[nH]c1=O
inactive: dose: 25.0 mg/kg/injection, schedule: Q01DX001 (ip), vehicle: Klucel (hydroxypropylcellulose) (HPC) 101 % of control | dose: 50.0 mg/kg/injection, schedule: Q01DX001 (ip), vehicle: Klucel (hydroxypropylcellulose) (HPC) 92 % of control | [17] 99 % of control and 101 % of control

CC(C)(C)c1ccc(OC(=O)Nc2ccc(Cl)cc2[N+](=O)[O-])c(Br)c1
inactive: [22] 98 % of control | [24] 93 % of control | [26] 98 % of control

N#Cc1ccc(CCc2ccccc2)cc1
inactive: [13] 102 % of control | [1] 102 % of control | [4] 101 % of control | [7] 102 % of control

CCOC(C[N+](C)(C)C)OCC
inactive: dose: 50.0 mg/kg/injection, schedule: Q04DX003 (ip), vehicle: saline 93 % of control | [3] 97 % of control | [6] 101 % of control

CCOC(=O)c1ccc(NC(=O)c2cccc(Cl)c2)cc1
inactive: [9] 94 % of control

CC/C(=C(\c1ccccc1)c1ccc(OCCN(C)C)cc1)c1ccccc1
inactive: [9] 95 % of control | [10] 92 % of control | [11] 100 % of control

CN1CCc2cc3c(cc2C(=O)Cc2ccc4c(c2C1)OCO4)OCO3
inactive: dose: 25.0 mg/kg/injection, schedule: Q04DX003 (ip), vehicle: saline with Tween-80 103 % of control | dose: 50.0 mg/kg/injection, schedule: Q04DX003 (ip), vehicle: saline with Tween-80 97 % of control | dose: 100.0 mg/kg/injection, schedule: Q01DX001 (ip), vehicle: carboxymethylcellulose (CMC) 100 % of control | [12] 102 % of control

CC(C)OC(=S)SC(C(=O)c1ccccc1)c1ccccc1 (centres undefined)
inactive: [9] 91 % of control | [10] 91 % of control | [11] 91 % of control

C[N+](C)(C)Cc1ccccc1/C(=N\O)c1ccccc1
inactive: dose: 10.0 mg/kg/injection, schedule: Q01DX001 (ip), vehicle: carboxymethylcellulose (CMC) 96 % of control | dose: 20.0 mg/kg/injection, schedule: Q01DX001 (ip), vehicle: carboxymethylcellulose (CMC) 101 % of control

CO/N=C(\N)Oc1c(C)cccc1C
inactive: [22] 107 % of control | [24] 96 % of control | [26] 103 % of control

COC1OC(CO)C(O)C1OS(C)(=O)=O (centres undefined)
inactive: [1] 101 % of control | [4] 103 % of control | [7] 101 % of control

CN1CC=C(/C=C/c2cccc3ccccc23)CC1
inactive: [20] 100 % of control | [21] 103 % of control | [2] 114 % of control | [3] 103 % of control

O=C(CC(=O)Oc1ccc(Cl)cc1Cl)Oc1ccc(Cl)cc1Cl
inactive: [14] 93 % of control | [15] 90 % of control | [16] 95 % of control

CS(=O)(=O)OC12CC3CC(CC(C3)C1)C2
inactive: [21] 96 % of control | [1] 90 % of control | [2] 96 % of control | [4] 98 % of control | [5] 94 % of control

Reference: PubChem BioAssay AID248 (DTP/NCI, 2004)
